From US20240174618A1, “SUBSTITUTED (2-HETEROARYLOXYPHENYL)SULFONATES, SALTS THEREOF AND THEIR USE AS HERBICIDAL AGENTS” (Bayer Aktiengesellschaft, priority 2021, published 2024)

Columns and labels:
Format in all cases: in vivo
[1] = test system: Polygonum convolvulus (POLCO); test: E. Herbicidal post-emergence efficacy, POLCO
In short: (§1)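 Visual scoring against untreated plants was done roughly 3 weeks after spraying (0% = no effect, 100% = plants dead). Spray application at 320 g/ha or lower, 600 l/ha water with 0.5% additive, was made onto green parts of one-leaf-stage greenhouse plants grown 2-3 weeks in sandy loam.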

[2] = test system: Abutilon theophrasti (ABUTH); test: B. Herbicidal post-emergence efficacy, ABUTH; details: rated visually after about 3 weeks
In short: (§2)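 Post-emergence greenhouse test: one-leaf-stage plants, compound (WP/EC, +0.5% additive, 600 L/ha water, ≤1280 g/ha) applied to green parts; % efficacy scored visually vs untreated after ~3 wk; 100% = plants died.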

[3] = test system: Echinochloa crus-galli (ECHCG); test: A. Herbicidal pre-emergence efficacy, ECHCG; details: scored visually after about 3 weeks vs untreated controls
In short: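 Applied before emergence onto covering soil at rates of 1280 g/ha or less, using 600 L/ha spray water with 0.5% additive. Scoring: visual % efficacy after ~3 weeks, greenhouse.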

[4] = test system: Triticum aestivum (TRZAS); test: F. Post-emergence effect on useful plants, TRZAS; details: useful plant
In short: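 Visual efficacy rating versus untreated plants, from 0% (no effect) to 100% (plants died), made about 3 weeks after post-emergence treatment. Formulated compounds (WP or EC, 0.5% additive, 600 l/ha water) were sprayed onto greenhouse-grown crops at the one-leaf stage, 2-3 weeks after sowing.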

[5] = test system: Veronica persica (VERPE); test: B. Herbicidal post-emergence efficacy, VERPE
In short: as §2

[6] = test system: Veronica persica (VERPE); test: E. Herbicidal post-emergence efficacy, VERPE
In short: as §1

[7] = test system: Setaria viridis (SETVI); test: C. Herbicidal pre-emergence efficacy, SETVI; details: scored after about 3 weeks
In short: (§3)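 Pre-emergence test: formulated compounds sprayed as aqueous suspension or emulsion with 0.5% additive at 600 l/ha onto soil covering sown seeds, at rates corresponding to 320 g/ha or less. After about 3 weeks in greenhouse, efficacy scored visually as percent versus untreated controls (100% = plants dead).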

[8] = test system: Echinochloa crus-galli (ECHCG); test: C. Herbicidal pre-emergence efficacy, ECHCG; details: scored after about 3 weeks
In short: as §3

SMILES | Post-emergence efficacy against POLCO in % ([1]; application rate 80 g/ha) [%] | Post-emergence efficacy against POLCO in % ([1]; application rate 320 g/ha) [%] | Post-emergence efficacy against ABUTH in % ([2]; 80 g/ha) [%] | Post-emergence efficacy against ABUTH in % ([2]; 320 g/ha) [%] | Post-emergence efficacy against ABUTH in % ([2]; 1280 g/ha) [%] | Pre-emergence efficacy against ECHCG ([3]; 80 g/ha) [%] | Pre-emergence efficacy against ECHCG ([3]; 320 g/ha) [%] | Pre-emergence efficacy against ECHCG ([3]; 1280 g/ha) [%] | Post-emergence efficacy against TRZAS in % ([4]; application rate 80 g/ha) [%] | Post-emergence efficacy against VERPE ([5]; 80 g/ha) [%] | Post-emergence efficacy against VERPE ([5]; 320 g/ha) [%] | Post-emergence efficacy against VERPE ([5]; 1280 g/ha) [%] | Post-emergence efficacy against VERPE in % ([6]; application rate 80 g/ha) [%] | Post-emergence efficacy against VERPE in % ([6]; application rate 320 g/ha) [%] | Pre-emergence efficacy against SETVI ([7]; 80 g/ha) [%] | Pre-emergence efficacy against SETVI ([7]; 320 g/ha) [%] | Pre-emergence efficacy against ECHCG ([8]; 80 g/ha) [%] | Pre-emergence efficacy against ECHCG ([8]; 320 g/ha) [%] | Post-emergence efficacy against TRZAS in % ([4]; application rate 320 g/ha) [%]
O=S(=O)(CCCCl)Oc1c(F)cccc1Oc1ncc(Cl)cn1 [Example I-14] | 80 | 90 | 90 | 100 | 100 | 100 | 100 | 100 | 20 | 100 | 100 | 100 | 100 | 100 | 100 | 100 | 100 | 100 | –
O=S(=O)(CCC(F)(F)F)Oc1c(Br)cccc1Oc1ncc(F)cn1 [Example I-43] | – | 90 | – | 90 | 100 | – | 100 | 100 | 0 | – | – | – | 100 | 100 | 100 | 100 | – | 90 | 0
Cc1cccc(Oc2ncc(F)cn2)c1OS(=O)(=O)CCC(F)(F)F [Example I-45] | – | 100 | – | 100 | 100 | 90 | 100 | 100 | 0 | – | – | – | 80 | 100 | 100 | 100 | 100 | 100 | 0
Cc1cccc(Oc2ncc(F)cn2)c1OS(=O)(=O)CCCC(F)(F)F [Example I-46] | – | 100 | – | 100 | 100 | 100 | 100 | 100 | 0 | – | – | – | 100 | 100 | 100 | 100 | 90 | 100 | 10
O=S(=O)(CCC(F)(F)F)Oc1c(F)cccc1Oc1ncc(F)cn1 [Example I-47] | 100 | 100 | 90 | 100 | 100 | 100 | 100 | 100 | 0 | – | – | – | 100 | 100 | 100 | 100 | 100 | 100 | –
COCCS(=O)(=O)Oc1c(F)cccc1Oc1ncc(Cl)cn1 [Example I-52] | – | 80 | – | – | 90 | – | 90 | 90 | 0 | – | – | – | 100 | 100 | – | 100 | 100 | 100 | 0
